Where two headings read alike, the source gives them in different places.

Assay [1] relates to cellular HDAC activity in MV-3 cells. Kind of assay: HDAC whole-cell assay. The class given is cell-based. The following applies: for IC50: read-out: IC50 whole-cell HDAC inhibition. The method, then: The amelanotic melanoma cell line MV-3 was obtained from EPO GmbH Berlin-Buch. The human ovarian carcinoma cell line A2780 was obtained from the European Collection of Cell Cultures (ECACC, Salisbury, UK). The cell lines were cultivated in RPMI 1640 medium supplemented with 10% fetal bovine serum and 50 U/mL penicillin and 50 µg/mL streptomycin and incubated at 37 °C under humidified air with 5% CO2 to 80–90% confluency before being used in further assays.
The HDAC whole-cell assay is based on the assay established by Ciossek et al. and Bonfils et al., with minor changes. Melanoma cells MV-3 were seeded in concentration of 15 × 10^3 cells/well (total volume of 81 µL) in 96-well cell-culture microplates (Catalog# 655086, Greiner Bio-One, Frickenhausen, Germany ) and cultured for 24 h. Aliquots of the DMSO stock solutions (10 mM) designated for photolysis were irradiated for 10 min with the UV reactor (see Section 4.3). The stock solutions processed with or without irradiation were used to perform a 4-fold serial dilution in PBS. Next, the cells were treated with 9 µL of the serial dilution for 18 h. For the analysis of the remaining HDAC activity, 10 µL of substrate solution, containing 3 mM Boc-Lys(ε-Ac)-AMC (Catalog# 233691-67-3, BLD pharmatech GmbH, Kaiserslautern, Germany) and 0.5% IGEPAL CA-630 (Catalog# J61055, Alfa Aesar, Thermo Fisher Scientific, Heysham, United Kingdom), was added and incubated for 3 h under cell culture conditions. The reaction was stopped with 100 µL of stop solution (50 mM Tris-HCl, 137 mM NaCl, 2.7 mM KCl, 1 mM MgCl2, 1% IGEPAL CA-630, 10 µM vorinostat, 2.0 mg/mL trypsin) and developed for 1.5 h under cell culture conditions. The fluorescence signal was measured using a Spark multimode microplate reader (Tecan Group AG, Männedorf, Swiss) at excitation wavelength of λ = 355 nm and emission wavelength of λ = 460 nm. Concentration-effect curves were generated using the four-parameter logistic equation (GraphPad Prism 9.0, San Diego, CA, USA), and mean IC50 values were determined by nonlinear regression based on at least three independent experiments in duplicates.

The target of assay [2] is T1, human recombinant HDAC6 (Homo sapiens, UniProt Q9UBN7).
T1 construct: purchased BPS Bioscience Inc. 50006
T1 sequence (Q9UBN7 1-1215): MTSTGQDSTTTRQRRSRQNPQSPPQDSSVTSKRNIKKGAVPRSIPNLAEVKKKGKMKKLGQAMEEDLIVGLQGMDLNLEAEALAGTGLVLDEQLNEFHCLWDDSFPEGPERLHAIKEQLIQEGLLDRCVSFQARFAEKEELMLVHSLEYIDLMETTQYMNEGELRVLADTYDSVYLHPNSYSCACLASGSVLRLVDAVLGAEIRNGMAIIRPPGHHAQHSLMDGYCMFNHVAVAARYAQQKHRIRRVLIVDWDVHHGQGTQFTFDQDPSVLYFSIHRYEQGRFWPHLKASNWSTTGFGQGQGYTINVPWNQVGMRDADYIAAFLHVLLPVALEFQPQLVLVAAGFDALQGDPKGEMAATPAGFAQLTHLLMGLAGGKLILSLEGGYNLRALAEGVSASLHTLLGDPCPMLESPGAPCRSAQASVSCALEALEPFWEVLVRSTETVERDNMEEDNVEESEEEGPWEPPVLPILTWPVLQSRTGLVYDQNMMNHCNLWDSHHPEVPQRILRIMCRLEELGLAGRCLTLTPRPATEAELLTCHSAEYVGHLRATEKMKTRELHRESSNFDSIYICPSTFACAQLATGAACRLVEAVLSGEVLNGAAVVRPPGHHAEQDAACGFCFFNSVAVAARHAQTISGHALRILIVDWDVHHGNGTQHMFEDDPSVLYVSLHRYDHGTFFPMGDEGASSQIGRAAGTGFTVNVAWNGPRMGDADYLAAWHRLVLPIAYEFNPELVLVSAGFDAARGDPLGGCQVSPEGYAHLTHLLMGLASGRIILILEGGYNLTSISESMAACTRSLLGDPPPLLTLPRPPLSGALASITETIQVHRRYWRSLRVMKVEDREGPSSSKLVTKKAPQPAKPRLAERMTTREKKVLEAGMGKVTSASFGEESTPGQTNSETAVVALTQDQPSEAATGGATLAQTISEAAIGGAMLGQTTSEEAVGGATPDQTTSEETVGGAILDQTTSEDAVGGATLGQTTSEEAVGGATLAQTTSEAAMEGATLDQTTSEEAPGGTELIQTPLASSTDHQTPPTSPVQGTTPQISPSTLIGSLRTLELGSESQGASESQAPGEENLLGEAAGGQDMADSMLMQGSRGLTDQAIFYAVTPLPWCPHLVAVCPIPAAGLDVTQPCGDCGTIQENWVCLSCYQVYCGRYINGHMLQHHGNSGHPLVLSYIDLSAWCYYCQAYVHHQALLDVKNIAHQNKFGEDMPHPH
Kind of assay: Fluorogenic HDAC enzyme inhibition assay (ZMAL substrate), HDAC6. The assay is classed as biochemical. The method, then:
First, predilutions (100-fold final assay concentration) of test compounds or reference inhibitors were prepared. To this end, 3-fold serial dilutions of the respective DMSO stock solutions were prepared in DMSO using clear V-bottom 96-well microplates (Greiner Bio-One, Greiner AG, Kremsmünster, Austria). Predilutions designated for photolysis were irradiated for 10 min using the UV reactor described above. […] Next, 5.0 µL of these serial dilutions in assay buffer were transferred into 96-well microplates (OptiPlate-96 Black, PerkinElmer, Waltham, MA, USA). […] Fluorescence (excitation: 355 nm, emission: 460 nm) was measured using a FLUOstar OPTIMA microplate reader (BMG LABTECH GmbH, Ortenberg, Germany). IC50 values were determined by generating normalized dose–response curves using the built-in “log(inhibitor) vs. response (three parameters)” equation provided by GraphPad Prism (GraphPad Prism 9.0, San Diego, CA, USA). All compounds were tested in duplicates; reported mean IC50 values, including standard deviation, were calculated from at least two independent experiments.

Turning to `CN(C)c1ccc(C(=O)N(CC(=O)NCc2ccccc2)Cc2ccc(C(=O)NO)cc2)cc1` [I, N-[2-(benzylamino)-2-oxoethyl]-4-(dimethylamino)-N-[4-(hydroxycarbamoyl)-benzyl]-benzamide], the half-inhibitory concentration (IC50) (as a rule, the midpoint of a concentration-inhibition curve) was 0.0906 ± 0.00574 µM in assay [1] (18 h, without UV irradiation); 0.091 µM in assay [1] (MV-3, light or radiation study, 18 h, without UV irradiation); 0.0131 ± 0.0009 µM in assay [2] (without UV irradiation).
`COc1cc(CONC(=O)c2ccc(CN(CC(=O)NCc3ccccc3)C(=O)c3ccc(N(C)C)cc3)cc2)c([N+](=O)[O-])cc1OC` [pc-I, N-[2-(Benzylamino)-2-oxoethyl]-N-(4-{[(4,5-dimethoxy-2-nitrobenzyl)oxy]carbamoyl}benzyl)-4-(dimethylamino)benzamide]: in assay [1] (18 h, without UV irradiation), the “IC50 whole-cell HDAC inhibition” value is reported as “n.e. (no effect: <25% inhibition at 25 µM)”. In addition, the half-maximal inhibitory concentration (IC50) in assay [1] (light or radiation study, 18 h, after UV irradiation (365 nm, 10 min)) came to 0.073 µM; in assay [2] (after UV irradiation (365 nm, 10 min)), 0.0216 ± 0.0028 µM; in assay [2] (without UV irradiation), 0.794 ± 0.0747 µM. In addition, the inhibition (as a rule, the share of the control response that was lost under treatment) at 25 µM in assay [1] (light or radiation study, at 25 µM, without UV irradiation) was < 25%. In assay [2] (irradiated vs non-irradiated), the “increase of HDAC6 inhibition upon irradiation with UV light” value is 37 fold.

The record behind these values is publication PMC10056348, “Photocaged Histone Deacetylase Inhibitors as Prodrugs in Targeted Cancer Therapy” (Pharmaceuticals, 2023).
